Drawing on patent US20180186815A1, “PHARMACEUTICAL COMPOSITIONS, METHODS FOR THEIR PREPARATION AND THEIR USE IN THE TREATMENT OF CANCER” (Urifer Ltd., priority 2016, published 2018), this text covers viability for 13 molecules.

Like-named read-outs stand apart in the source and are kept apart here.

Holding throughout (assay type): cell-based
Data set [1] deals with colon cancer cell line HT29. In words: Growth profile / viability of HT29 colon cancer cells, XTT test. The conditions noted are these: Homo sapiens, HT-29, 96 h, Control DMSO = 100%, read-out: percentage of viable cells, HT29. The procedure:
(§1) The effect of the compounds Z522-XXX on the growth profile of cancer cells which express Fer was tested. The cells that were tested were: the colon cancer cell lines HT29 and HCT 116, RKO. The effect of each of the compounds on FS cells, a non malingnant fibroblastic cell line, was also studied.
(§2) Generally, cells were seeded in 96 wells microplates and were left to grow untreated overnight. Each of the compounds was dissolved in DMSO and was then added to each well in a final concentration of 5 μM. The concentration of DMSO in each well was 0.4% v/v. Untreated cells and cells subjected to 0.4% DMSO alone, served as controls. The percentage of viable cells in each well was determined 96 hours after compounds addition, using the XTT test (Berridge, M. V. et al, 2005).
In general terms: Formazan colour is commonly taken as a measure of viable cells.

Data set [2] has as its system colon cancer cell line RKO. In words: Growth profile / viability of RKO colon cancer cells, XTT test. The conditions noted are these: 96 h, Control DMSO = 100%, read-out: percentage of viable cells, RKO. The procedure:
as §1, §2

Data set [3] is described as follows: Viability of FS non malignant fibroblastic cells, XTT test. The conditions noted are these: FS cells (non-malignant fibroblastic cell line), Control DMSO = 100%, read-out: percentage of viable cells, FS. The method, then: as §1, §2
Data set [4] has as its system colon cancer cell line HCT 116. The data set can be described thus: Growth profile / viability of HCT116 colon cancer cells, XTT test. The conditions noted are these: Homo sapiens, HCT-116, 96 h, Control DMSO = 100%, read-out: percentage of viable cells, HCT116. The procedure:
as §1, §2

For the molecule `CC(C)c1ccc(-c2cn3nc(N4CCC(C(=O)N(C)CC(=O)N5CCN(C)CC5)CC4)sc3n2)cc1` [Compound Z522-0240, 1-[6-(4-isopropylphenyl)imidazo[2,1-b][1,3,4]thiadiazol-2-yl]-N^4-methyl-N^4-[2-(4-methyl-piperazino)-2-oxoethyl]-4-piperidinecarboxamide], the viability at 5 µM in data set [1] (first HT29 column) turned out to be 50%; in data set [1] (second HT29 column), 53%; in data set [2] (first RKO column), 19%; in data set [2] (second RKO column), 15%; in data set [4] (first HCT116 column), 82%; in data set [4] (second HCT116 column) it was 68%. The viability at 96 h, 5 µM in data set [3] (first FS column) worked out at 80%; in data set [3] (second FS column) it was 101%.
Turning to `Cc1c(-c2ccc(N3CCN(C)CC3)cc2)nc2sc(N3CCC(C(=O)N4CCN(C)CC4)CC3)nn12` [Compound Z522-0180, 5-methyl-2-{4-[(4-methyl-piperazin-1-yl)carbonyl]piperidin-1-yl}-6-[4-(4-methylpiperazin-1-yl)phenyl]-imidazo[2,1-b]-[1,3,4]thiadiazole], the viability at 5 µM in data set [1] (first HT29 column) was determined as 89%; in data set [1] (second HT29 column) it was 90%; in data set [2] (first RKO column), 95%; in data set [2] (second RKO column), 103%; in data set [4] (first HCT116 column), 94%; in data set [4] (second HCT116 column) it was 105%. In addition, the viability at 96 h, 5 µM in data set [3] (first FS column) and in data set [3] (second FS column) was 101% in each case.
Regarding `CN(CCc1ccccn1)C(=O)C1CCN(c2nn3cc(-c4ccc(Cl)cc4)nc3s2)CC1` [Compound Z522-0203, 1-[6-(4-chlorophenyl)imidazo[2,1-b][1,3,4]thiadiazol-2-yl]-N-methyl-N-(2-pyridin-2-ylethyl) piperidine-4-carboxamide], the viability at 5 µM in data set [1] (first HT29 column) turned out to be 74%; in data set [1] (second HT29 column), 88%; in data set [2] (first RKO column), 48%; in data set [2] (second RKO column), 48%; in data set [4] (first HCT116 column), 75%; in data set [4] (second HCT116 column), 75%. Besides, the viability at 96 h, 5 µM in data set [3] (first FS column) is 90%; in data set [3] (second FS column), 94%.
In the case of `CC(C)c1ccc(-c2cn3nc(N4CCC(C(=O)N(C)CC(=O)NCCN(C)C)CC4)sc3n2)cc1` [Compound Z522-0239, N^4-(2-[2-(dimethylamino)ethyl]amino-2-oxoethyl)-1-[6-(4-isopropylphenyl)imidazo[2,1-b][1,3,4]thiadiazol-2-yl]-N^4-methyl-4-piperidinecarboxamide], the viability at 5 µM in data set [1] (first HT29 column) amounted to 3%; in data set [1] (second HT29 column), 2%; in data set [2] (first RKO column), 1%; in data set [2] (second RKO column), 1%; in data set [4] (first HCT116 column) it was 80%; in data set [4] (second HCT116 column) it was 45%. Moreover, the viability at 96 h, 5 µM in data set [3] (first FS column) was 83%; in data set [3] (second FS column), 96%.
For the molecule `Cc1c(-c2ccc(N3CCCC(C)C3)cc2)nc2sc(N3CCC(C(=O)N4CCN(C)CC4)CC3)nn12` (stereo not drawn) [Compound Z522-0186, 5-methyl-2-{4-[(4-methyl-piperazin-1-yl)carbonyl]piperidin-1-yl}-6-[4-(3-methylpiperidin-l-yl)phenyl]-imidazo[2,1-b]-[1,3,4]thiadiazole], the viability at 5 µM in data set [1] (first HT29 column) was 7%; in data set [1] (second HT29 column), 7%; in data set [2] (first RKO column), 8%; in data set [2] (second RKO column), 11%; in data set [4] (first HCT116 column), 23%; in data set [4] (second HCT116 column) it was 26%. Also, the results for the viability at 96 h, 5 µM in data set [3] (first FS column) and in data set [3] (second FS column) were 82% and 94%, respectively.
Consider `Cc1c(-c2ccc(N3CCCCCCC3)cc2)nc2sc(N3CCC(C(=O)N4CCN(C)CC4)CC3)nn12` [Compound Z522-0191, 6-(4-azocan-1-ylphenyl)-5-methyl-2-{4-[(4-methylpiperazin-1-yl)carbonyl]-piperidin-1-yl}-imidazo[2,1-b]-[1,3,4]thiadiazole], for which the viability at 5 µM in data set [1] (first HT29 column) was found to be 12%; in data set [1] (second HT29 column), 10%; in data set [2] (first RKO column), 23%; in data set [2] (second RKO column), 35%; in data set [4] (first HCT116 column), 39%; in data set [4] (second HCT116 column) it was 41%. Besides, the viability at 96 h, 5 µM was 103% in data set [3] (first FS column) and 101% in data set [3] (second FS column).
On to `Cc1c(-c2ccc(N3CCC(C)CC3)cc2)nc2sc(N3CCC(C(=O)N4CCN(C)CC4)CC3)nn12` [Compound Z522-0190, 5-methyl-2-{4-[(4-methyl-piperazin-1-yl)-carbonyl]piperidin-1-yl}-6-[4-(4-methylpiperidin-1-yl)phenyl]-imidazo[2,1-b]-[1,3,4]thiadiazole], for which the viability at 5 µM in data set [1] (first HT29 column) stood at 7%; in data set [1] (second HT29 column), 6%; in data set [2] (first RKO column) it was 9%; in data set [2] (second RKO column), 9%; in data set [4] (first HCT116 column), 45%; in data set [4] (second HCT116 column) it was 51%. Also, the viability at 96 h, 5 µM in data set [3] (first FS column) was determined as 86%; in data set [3] (second FS column), 101%.
For `CN1CCN(C(=O)C2CCN(c3nn4cc(-c5ccc(N(C)CCO)cc5)nc4s3)CC2)CC1` [Compound Z522-0177, 2-{methyl[4-(2-{4-[(4-methyl-piperazin-1-yl)-carbonyl]piperidin-1-yl}imidazo-[2,1-b][1,3,4]-thiadiazol-6-yl)-phenyl]amino} ethanol], the viability at 5 µM in data set [1] (first HT29 column) is 116%; in data set [1] (second HT29 column) it was 121%; in data set [2] (first RKO column) it was 97%; in data set [2] (second RKO column), 96%; in data set [4] (first HCT116 column), 107%; in data set [4] (second HCT116 column) it was 104%. Also, the viability at 96 h, 5 µM in data set [3] (first FS column) came out at 120%; in data set [3] (second FS column), 116%.
As to `CC(C)c1ccc(-c2cn3nc(N4CCC(C(=O)N5CCN(CCN(C)C)CC5)CC4)sc3n2)cc1` [Compound Z522-0229, {2-[4-({1-[6-(4-isopropylphenyl)imidazo[2,1-b][1,3,4]thiadiazol-2-yl]piperidin-4-yl}carbonyl)piperazin-1-yl]ethyl} dimethylamine], the viability at 5 µM in data set [1] (first HT29 column) came out at 74%; in data set [1] (second HT29 column) it was 77%; in data set [2] (first RKO column), 45%; in data set [2] (second RKO column) it was 47%; in data set [4] (first HCT116 column), 87%; in data set [4] (second HCT116 column), 99%. Also, the viability at 96 h, 5 µM was 79% in data set [3] (first FS column) and 101% in data set [3] (second FS column).
As for `O=C(C1CCN(c2nn3cc(-c4ccc(Cl)cc4)nc3s2)CC1)N1CCN(c2ccccn2)CC1` [Compound Z522-0200, 6-(4-chlorophenyl)-2-{4-[(4-pyridin-2-ylpiperazin-1-yl)carbonyl]piperidin-1-yl}imidazo[2,1-b][1,3,4]thiadiazole], the viability at 5 µM came out at 92% in data set [1] (first HT29 column); 98% in data set [1] (second HT29 column); 81% in data set [2] (first RKO column); 78% in data set [2] (second RKO column); 94% in data set [4] (first HCT116 column); 88% in data set [4] (second HCT116 column). The viability at 96 h, 5 µM is 95% in data set [3] (first FS column) and 103% in data set [3] (second FS column).
As for `CN(C)CCNC(=O)CN(C)C(=O)C1CCN(c2nn3cc(-c4ccc(Cl)cc4)nc3s2)CC1` [Compound Z522-0216, 1-[6-(4-chlorophenyl)imidazo[2,1-b][1,3,4]thiadiazol-2-yl]-N^4-(2-[2-(dimethylamino)ethyl]amino-2-oxoethyl)-N^4-methyl-4-piperidinecarboxamide], the viability at 5 µM in data set [1] (first HT29 column) stood at 10%; in data set [1] (second HT29 column), 11%; in data set [2] (first RKO column), 0%; in data set [2] (second RKO column), 2%; in data set [4] (first HCT116 column) it was 68%; in data set [4] (second HCT116 column), 86%. The viability at 96 h, 5 µM in data set [3] (first FS column) came to 86%; in data set [3] (second FS column) it was 93%.
For `CC(C)c1ccc(-c2cn3nc(N4CCC(C(=O)N5CCN(c6ccccn6)CC5)CC4)sc3n2)cc1` [Compound Z522-0223, 6-(4-isopropyl-phenyl)-2-{4-[(4-pyridin-2-ylpiperazin-1-yl)carbonyl]piperidin-1-yl}imidazo[2,1-b][1,3,4]thiadiazole], the viability at 5 µM was 83% in data set [1] (first HT29 column); 89% in data set [1] (second HT29 column); 64% in data set [2] (first RKO column); 81% in data set [2] (second RKO column); 75% in data set [4] (first HCT116 column); 80% in data set [4] (second HCT116 column). Moreover, the viability at 96 h, 5 µM in data set [3] (first FS column) worked out at 87%; in data set [3] (second FS column), 92%.
Regarding `CC(C)c1ccc(-c2cn3nc(N4CCC(C(=O)N5CCCC(CN6CCOCC6)C5)CC4)sc3n2)cc1` (centres unmarked) [Compound Z522-0237, 6-(4-isopropyl-phenyl)-2-(4-{[3-(morpholin-4-yl-methyl)piperidin-1-yl]carbonyl}piperidin-1-yl)imidazo[2,1-b][1,3,4]thiadiazole], the viability at 5 µM is 13% in data set [1] (first HT29 column); 8% in data set [1] (second HT29 column); 11% in data set [2] (first RKO column); 8% in data set [2] (second RKO column); 74% in data set [4] (first HCT116 column); 89% in data set [4] (second HCT116 column). The viability at 96 h, 5 µM in data set [3] (first FS column) is 82%; in data set [3] (second FS column) it was 105%.
